“Also recorded” adds a separate entry of the source.

One assay has as its system MRSA clinical isolates. Put plainly: 8×8 broth microdilution checkerboard assays. Type of assay: cell-based, Staphylococcus aureus. To be noted: MSSA and MRSA. From the text: (§1) Drug interaction networks in S. aureus, with drugs grouped according to their class (a) or targeted cellular process (b). Unique interactions across both strains tested are considered (i=331). Edge thickness represents the proportion of interactions for each node pair, considering all possible interactions given the number of drugs in each node. Nodes depict the drug class (a) or the targeted cellular process (b), and size is proportional to the number of drugs in the represented class/process. Only interacting drugs are considered (d=62). Synergies, antagonisms and nodes are colored according to FIG. 1. c. Novel and previously reported interactions detected in S. aureus. Interactions are considered known if reported in any S. aureus strain (Supplementary Table 4). d-e. Novel synergies are effective against MRSA clinical isolates in vitro (d) and in vivo in the G. mellonella infection model (e). […] The percentage of surviving larvae after treatment and in the untreated controls was monitored over time. […]
Combinations were tested in the same experimental conditions as for the screen, but at higher concentration resolution: drugs were diluted in eight concentrations spanning linearly-space gradients to assemble 8×8 checkerboards for each combination tested. […] Data was analyzed with the same pipeline as for the screen (Methods).
(In general: Broth dilution looks for growth in wells or tubes with falling amounts of substance.)

The test system of the next assay is MRSA. In words: G. mellonella infection model, drug combination therapy. Type of assay: in vivo, Galleria mellonella. The settings on record: G. mellonella infected with MRSA isolate resistant to tigecycline, gentamicin 2 μg/ml, ticagrelor 100 μg/ml (FIG. 5e).
Description: as §1
Larvae of the greater wax moth (Galleria mellonella) at their final instar larval stage were used for evaluation of selected drug combinations to assess their efficacy against MRSA in vivo. […] The survival of Galleria larvae was monitored at the indicated time points by two observers independently. Each strain-drug combination was evaluated in three independent experiments.

As to `CCCSc1nc(N[C@@H]2C[C@H]2c2ccc(F)c(F)c2)c2nnn([C@@H]3C[C@H](OCCO)[C@@H](O)[C@H]3O)c2n1` [ticagrelor], the “interaction with gentamicin at growth inhibition level” value in the assay with MRSA clinical isolates (MRSA isolate resistant to tigecycline (FIG. 5c), ticagrelor combined with gentamicin) was “sensitized; also recorded: synergizes”. The “sensitization to cationic peptide nisin” value in the assay on MRSA clinical isolates (ticagrelor combined with nisin) is on record as “sensitized”. Further, the results for the “interaction with gentamicin in vivo (survival of infected larvae)” value with MRSA and in the assay on MRSA (listed as Ticagrelor) were “evident” and “synergizes”, respectively.

For the origin of these results see patent US20260102460A1, “NOVEL COMBINATIONS OF ANTIBIOTICS AND NON-ANTIBIOTIC DRUGS EFFECTIVE IN VIVO AGAINST GRAM-POSITIVE BACTERIA, IN PARTICULAR METHICILLIN-RESISTANT S. AUREUS (MRSA)” (EUROPEAN MOLECULAR BIOLOGY LABORATORY, priority 2022, published 2026).
